In patent US20140357577A1, “HIV Membrane Fusion Inhibitors” (priority 2011, published 2014):
Starred links: 1 amine or outer side, 2 acyl side, 3 side chain; linkers in the order of their positions; H or OH if unused. *: point of attachment. cholesteryl‑oxycarbonylmethyl = CC(C)CCC[C@@H](C)[C@H]1CC[C@H]2[C@@H]3CC=C4C[C@@H](OC(=O)C*)CC[C@]4(C)[C@H]3CC[C@]12C; cholesteryl‑succinyl = CC(C)CCC[C@@H](C)[C@H]1CC[C@H]2[C@@H]3CC=C4C[C@@H](OC(=O)CCC(=O)*)CC[C@]4(C)[C@H]3CC[C@]12C; Palmitoyl = CCCCCCCCCCCCCCCC(=O)*; Suc = O=C(CCC(=O)[*:2])[*:1]; Hexanoyl = CCCCCC(=O)*; Pentanoyl = CCCCC(=O)*

How the values were obtained:
[1] = tested on: HIV wild type virus strain IIIB; test: Standard Anti-Viral-Experiment (AVE), HIV-1 replication assay in MT4-LTR-EGFP cells, wild type IIIB; format: cell-based; settings: 3 days, EGFP signal
Text: (§1) • Standard Anti-Viral-Experiment “AVE” (wild type HIV strain IIIB+HIV strain HXB2D side directed mutants V38A and Q40H)
(§2) The HIV-1 replication assay measures virus replication (HIV wild type virus strain 111B or HXB2D, or a HIV mutant virus strain HXB2D with mutation V38A or Q40H in the gp41 gene) as an induction of enhanced green fluorescent protein (EGFP) expression. The indicator MT4-LTR-EGFP cells contain an EGFP gene under the control of the HIV-1 LTR promoter sequence. Successful HIV-1 infection results in viral Tat protein expression and subsequent induction of EGFP expression. Compounds/peptides inhibiting HIV-1 infection are expected to reduce EGFP expression as compared to the untreated HIV-infected control.
(§3) Serial 4-fold dilutions of test compounds/peptides were mixed with HIV-1 (IIIB, HXB2D, or a HXB2D mutant virus (V38A or Q40H)) and MT4-LTR-EGFP cells and incubated at 37° C. After 3 days, the wells were examined for EGFP expression using an argon laser-scanning microscope. The effective compound/peptide concentration inhibiting 50% of the virus-induced EGFP signal (EC50) was determined by linear interpolation of the EGFP signal vs. logarithm of the compound concentration; (T20, C34 and Sifuvirtide were added as reference compounds). For the V38A and Q40H mutant viruses, results were reported as a fold change in EC50, as compared with a drug-susceptible wild type strain HXB2D, which forms the backbone of the mutant virus. • Standard AVE (50% Human Serum)

[2] = tested on: HIV mutant virus strain HXB2D with mutation Q40H in the gp41 gene; test: Standard AVE, HXB2D site directed mutant Q40H; format: cell-based, HIV-1; settings: fold change vs wild type strain HXB2D
Text: as §1, §2, §3

HIV-IIIB + 50% HS = test: Standard AVE (50% Human Serum), HIV-1 replication assay in MT4-LTR-EGFP cells; format: cell-based; settings: fold change vs EC50 in the assay without human serum
Text: The HIV-1 replication assay (with 50% human serum) measures virus replication as an induction of enhanced green fluorescent protein (EGFP) expression, in the presence of 50% human serum. The indicator MT4-LTR-EGFP cells contain an EGFP gene under the control of the HIV-1 LTR promoter sequence. Successful HIV-1 infection results in viral Tat protein expression and subsequent induction of EGFP expression. Compounds/peptides inhibiting HIV-1 infection are expected to reduce EGFP expression as compared to the untreated HIV-infected control. Compounds/peptides binding to human serum are expected to have a reduced activity for inhibiting the virus in the assay.
Serial 4-fold dilutions of test compounds/peptides were mixed with HIV-1 and MT4-LTR-EGFP cells and incubated at 37° C., in the presence of 50% human serum. After 3 days, the wells were examined for EGFP expression using an argon laser-scanning microscope. The effective compound/peptide concentration inhibiting 50% of the virus-induced EGFP signal (EC50) was determined by linear interpolation of the EGFP signal vs. logarithm of the compound concentration; T20, C34 and Sifuvirtide were added as reference compounds. Results were reported as a fold change in EC50, as compared with the acquired EC50 in the assay without human serum.

| Substance | EC50 [1] [nM] | HIV-HXB2D Q40H mutant (fold change in EC50) [2] | HIV-IIIB + 50% HS (Fold change in EC50) (HIV-IIIB + 50% HS) |
| --- | --- | --- | --- |
| Pentanoyl-ECYLACIEELIRKAQEQQEKNEAALR-NH2 (cysteine pairing not given here) [Peptide 41] | 1 | 42 | – |
| Suc-ANYLALIEALIRAAQEQQEKNEAALRGSGC(cholesteryl-oxycarbonylmethyl)-NH2 (Suc-ANYLALIEALIRAAQEQQEKNEAALRGSGC(cholesteryl‑oxycarbonylmethyl)-NH2; SMILES CC[C@H](C)[C@H](NC(=O)[C@H](CC(C)C)NC(=O)[C@H](C)NC(=O)[C@H](CCC(=O)O)NC(=O)[C@@H](NC(=O)[C@H](CC(C)C)NC(=O)[C@H](C)NC(=O)[C@H](CC(C)C)NC(=O)[C@H](Cc1ccc(O)cc1)NC(=O)[C@H](CC(N)=O)NC(=O)[C@H](C)NC(=O)CCC(=O)O)[C@@H](C)CC)C(=O)N[C@@H](CCCNC(=N)N)C(=O)N[C@@H](C)C(=O)N[C@@H](C)C(=O)N[C@@H](CCC(N)=O)C(=O)N[C@@H](CCC(=O)O)C(=O)N[C@@H](CCC(N)=O)C(=O)N[C@@H](CCC(N)=O)C(=O)N[C@@H](CCC(=O)O)C(=O)N[C@@H](CCCCN)C(=O)N[C@@H](CC(N)=O)C(=O)N[C@@H](CCC(=O)O)C(=O)N[C@@H](C)C(=O)N[C@@H](C)C(=O)N[C@@H](CC(C)C)C(=O)N[C@@H](CCCNC(=N)N)C(=O)NCC(=O)N[C@@H](CO)C(=O)NCC(=O)N[C@@H](CSCC(=O)O[C@H]1CC[C@@]2(C)C(=CC[C@H]3[C@@H]4CC[C@H]([C@H](C)CCCC(C)C)[C@@]4(C)CC[C@@H]32)C1)C(N)=O) [Peptide 35] | 0.3 | 24 | – |
| Hexanoyl-ECYLACIEELIRKAQEQQEKNEAALR-NH2 (cysteine pairing not given here) [Peptide 42] | 1 | 27 | – |
| Suc-ENYLALIEELIRKAQEQQEKNEAALR-NH2 (SMILES CC[C@H](C)[C@H](NC(=O)[C@H](CC(C)C)NC(=O)[C@H](C)NC(=O)[C@H](CC(C)C)NC(=O)[C@H](Cc1ccc(O)cc1)NC(=O)[C@H](CC(N)=O)NC(=O)[C@H](CCC(=O)O)NC(=O)CCC(=O)O)C(=O)N[C@@H](CCC(=O)O)C(=O)N[C@@H](CCC(=O)O)C(=O)N[C@@H](CC(C)C)C(=O)N[C@H](C(=O)N[C@@H](CCCNC(=N)N)C(=O)N[C@@H](CCCCN)C(=O)N[C@@H](C)C(=O)N[C@@H](CCC(N)=O)C(=O)N[C@@H](CCC(=O)O)C(=O)N[C@@H](CCC(N)=O)C(=O)N[C@@H](CCC(N)=O)C(=O)N[C@@H](CCC(=O)O)C(=O)N[C@@H](CCCCN)C(=O)N[C@@H](CC(N)=O)C(=O)N[C@@H](CCC(=O)O)C(=O)N[C@@H](C)C(=O)N[C@@H](C)C(=O)N[C@@H](CC(C)C)C(=O)N[C@@H](CCCNC(=N)N)C(N)=O)[C@@H](C)CC) [Peptide 19] | 1 | 151 | – |
| Pentanoyl-ECYLACIEALIRAAQEQQEKNEAALR-NH2 (cysteine pairing not given here) [Peptide 38] | 1 | 45 | – |
| Ac-ANYLALIEALIRAAQEQQEKNEAALRGSGK(cholesteryl-succinyl)-NH2 (Ac-ANYLALIEALIRAAQEQQEKNEAALRGSGK(cholesteryl‑succinyl)-NH2; SMILES CC[C@H](C)[C@H](NC(=O)[C@H](CC(C)C)NC(=O)[C@H](C)NC(=O)[C@H](CCC(=O)O)NC(=O)[C@@H](NC(=O)[C@H](CC(C)C)NC(=O)[C@H](C)NC(=O)[C@H](CC(C)C)NC(=O)[C@H](Cc1ccc(O)cc1)NC(=O)[C@H](CC(N)=O)NC(=O)[C@H](C)NC(C)=O)[C@@H](C)CC)C(=O)N[C@@H](CCCNC(=N)N)C(=O)N[C@@H](C)C(=O)N[C@@H](C)C(=O)N[C@@H](CCC(N)=O)C(=O)N[C@@H](CCC(=O)O)C(=O)N[C@@H](CCC(N)=O)C(=O)N[C@@H](CCC(N)=O)C(=O)N[C@@H](CCC(=O)O)C(=O)N[C@@H](CCCCN)C(=O)N[C@@H](CC(N)=O)C(=O)N[C@@H](CCC(=O)O)C(=O)N[C@@H](C)C(=O)N[C@@H](C)C(=O)N[C@@H](CC(C)C)C(=O)N[C@@H](CCCNC(=N)N)C(=O)NCC(=O)N[C@@H](CO)C(=O)NCC(=O)N[C@@H](CCCCNC(=O)CCC(=O)O[C@H]1CC[C@@]2(C)C(=CC[C@H]3[C@@H]4CC[C@H]([C@H](C)CCCC(C)C)[C@@]4(C)CC[C@@H]32)C1)C(N)=O) [Peptide 69] | 0.3 | 11 | – |
| Ac-ACYAACIEALIRKAQEQQEKNEAALR-NH2 [Peptide 71] | 8 | – | 1 |
| AC-ACYAACIEALIRAAQEQQEKNEAALR-NH2 [Peptide 89] | 18 | – | 3 |
| Ac-ACYAACIEALIRAAQEQQEKNEAALR-NH2 [Peptide 64] | 56 | – | 0.8 |
| ANYLALIEALIRAAQEQQEKNEAALR [Peptide 6] | 5 | – | 0.7 |
| Ac-ACYLACIEALIRAAQEQQEKNEAALR-NH2 [Peptide 56] | 4 | – | 2 |
| AC-ECYAACIEALIRAAQEQQEKNEAALR-NH2 [Peptide 74] | 53 | – | 0.9 |
| Suc-ACYAACIEALIRAAQEQQEKNEAALR-NH2 (cysteine pairing not given here) [Peptide 67] | 8 | – | 0.8 |
| Suc-ECYLRCIEELIRKAQEQQEKNEAALRGSGK(palmitoyl)-NH2 (Suc-ECYLRCIEELIRKAQEQQEKNEAALRGSGK(Palmitoyl)-NH2; cysteine pairing not given here) [Peptide 88] | 0.06 | – | 3 |
| Ac-ACYAACIEELIRKAQEQQEKNEAALR-NH2 [Peptide 72] | 15 | – | 0.6 |
| Ac-ACYAAcIEALIRAAQEQQEKNEAALR-NH2 [Peptide 83] | 54 | – | 3 |
| Penlanoyl-ECYLACIEALIRAAQEQQEKNEAALR-NH2 (Pentanoyl-ECYLACIEALIRAAQEQQEKNEAALR-NH2; cysteine pairing not given here) [Peptide 39] | 7 | – | 5 |
| Suc-ENYLRLIEELIRKAQEQQEKNEAALRGSGC(cholesteryl-oxycarbonylmethyl)-NH2 (Suc-ENYLRLIEELIRKAQEQQEKNEAALRGSGC(cholesteryl‑oxycarbonylmethyl)-NH2; SMILES CC[C@H](C)[C@H](NC(=O)[C@H](CC(C)C)NC(=O)[C@H](CCC(=O)O)NC(=O)[C@H](CCC(=O)O)NC(=O)[C@@H](NC(=O)[C@H](CC(C)C)NC(=O)[C@H](CCCNC(=N)N)NC(=O)[C@H](CC(C)C)NC(=O)[C@H](Cc1ccc(O)cc1)NC(=O)[C@H](CC(N)=O)NC(=O)[C@H](CCC(=O)O)NC(=O)CCC(=O)O)[C@@H](C)CC)C(=O)N[C@@H](CCCNC(=N)N)C(=O)N[C@@H](CCCCN)C(=O)N[C@@H](C)C(=O)N[C@@H](CCC(N)=O)C(=O)N[C@@H](CCC(=O)O)C(=O)N[C@@H](CCC(N)=O)C(=O)N[C@@H](CCC(N)=O)C(=O)N[C@@H](CCC(=O)O)C(=O)N[C@@H](CCCCN)C(=O)N[C@@H](CC(N)=O)C(=O)N[C@@H](CCC(=O)O)C(=O)N[C@@H](C)C(=O)N[C@@H](C)C(=O)N[C@@H](CC(C)C)C(=O)N[C@@H](CCCNC(=N)N)C(=O)NCC(=O)N[C@@H](CO)C(=O)NCC(=O)N[C@@H](CSCC(=O)O[C@H]1CC[C@@]2(C)C(=CC[C@H]3[C@@H]4CC[C@H]([C@H](C)CCCC(C)C)[C@@]4(C)CC[C@@H]32)C1)C(N)=O) [Peptide 32] | 0.04 | – | 13 |
| Ac-CYAACIEALIRAAQEQQEKNEAALR-NH2 [Peptide 22] | 35 | – | 2 |
| Ac-ACYAACIEALIRAAQEQQEKNEALLR-NH2 [Peptide 73] | 21 | – | 3 |
| Ac-aCYAACIEALIRAAQEQQEKNEAALr-NH2 [Peptide 75] | 29 | – | 4 |
| Suc-ECYLRCIEELIRKAQEQQEKNEAALRGSGC(cholesteryl-oxycarbonylmethyl)-NH2 (Suc-ECYLRCIEELIRKAQEQQEKNEAALRGSGC(cholesteryl‑oxycarbonylmethyl)-NH2; cysteine pairing not given here) [Peptide 82] | 0.05 | – | 6 |
